“And” between values parts separate entries of the source, which are not always exact repeats. Identical values can stand only once.
System: WM3248 melanoma cells, 486 antibodies
Test: Reverse phase protein arrays (RPPA)
Assay type: cell-based, Human
Settings: 10 uM, single replicates
From the text: Pellets were snap frozen in liquid nitrogen and shipped to MD Anderson Cancer Center core RPPA facility for RPPA analysis (Table S5). Three biological replicates for each sample were generated.
Nomenclatures on the RPPA heatmaps: name_of_antibody.species_of_antibody.status_of_antibody. V - antibody validated; C - validation of antibody in progress; Q - antibody nonspecific; E – under evaluation; antibodies raised in M - mouse, G - goat, R - rabbit, or T - rat.

CN(C)c1cccc(Nc2cc(-c3ccccc3)nc(C3CCNCC3)n2)c1 [ARN22089, N1,N1-dimethyl-N3-(6-phenyl-2-(piperidin-4-yl)pyrimidin-4-yl)benzene-1,3-diamine]
RPPA PDHA1.R.V: 0.868 and 1.050 | RPPA PDHK1.R.C: 0.847 and 0.989 and 1.019 | RPPA PDK1.R.V: 1.007 and 1.121 and 1.006 | RPPA PDK1_pS241.R.V: 0.935 and 0.909 and 0.981 | RPPA PEA.15.R.V: 0.898 and 0.934 (2×) | RPPA PEA.15_pS116.R.V: 0.987 | RPPA PERK.R.V: 0.972 and 0.874 | RPPA PGM1.R.V: 1.007 and 0.983 and 1.004 | RPPA PHGDH.R.C: 0.889 and 1.016 | RPPA PHLPP.R.V: 1.515 and 0.856 and 0.877 | RPPA PI3K.p85.R.C: 1.113 and 1.033 | RPPA PI3K.p110.a.R.C: 0.828 and 0.921 and 0.963 | RPPA PI3K.p110.b.M.C: 0.981 and 0.937 | RPPA PKA.a.R.V: 1.016 and 0.756 and 0.860 | RPPA PKC.a.b.II_pT638_T641.R.V: 0.761 and 0.940 and 1.029 | RPPA PKC.b.II_pS660.R.V: 0.960 and 1.055 | RPPA PKCa.R.V: 1.576 and 0.715 and 0.684 | RPPA PKM2.R.C: 0.940 and 0.831 and 1.047 | RPPA PLC.gamma1.R.V: 1.302 and 0.921 and 1.027 | RPPA PLC.gamma1_pS1248.R.V: 1.246 and 0.852 and 0.899 | RPPA PLC.gamma2_pY759.R.V: 1.055 and 1.008 and 1.052 | RPPA PLK1.R.C: 1.052 and 0.570 | RPPA PMS2.R.V: 1.013 and 1.061 and 1.035 | RPPA PR.R.V: 1.051 and 1.057 and 1.083 | RPPA PRAS40.M.C: 1.053 and 1.125 and 0.970 | RPPA PRAS40_pT246.R.V: 0.997 and 0.945 and 0.929 | RPPA PRC1_pT481.R.C: 1.013 | RPPA PREX1.R.V: 0.847 and 0.880 and 1.018 | RPPA PTEN.R.V: 0.967 and 0.919 | RPPA PTPN12.R.V: 0.922 and 0.923 | RPPA PYGB.R.V: 1.000 and 1.018 | RPPA PYGM.M.C: 0.933 and 0.899 and 1.244 | RPPA Patched.R.C: 0.891 and 1.022 and 1.001 | RPPA Paxillin.R.C: 0.651 and 0.874 and 0.967 | RPPA Pdcd4.R.C: 1.032 and 0.964 and 0.935 | RPPA Porin.M.V: 0.986 and 1.054 and 1.019 | RPPA Puma.R.C: 1.032 and 0.898 and 0.973 | RPPA Pyk2_pY402.R.C: 0.958 and 0.968 and 0.955 | RPPA RBM15.R.V: 0.860 and 0.890 and 0.867 | RPPA RIP3.R.C: 0.858 and 0.945 | RPPA RIP.R.C: 0.855 and 1.003 | RPPA RPA32.R.V: 1.116 and 1.009 and 0.985 | RPPA RPA32_pS4_S8.R.C: 1.499 and 0.874 and 0.876 | RPPA RRM1.R.C: 0.796 | RPPA RRM2.R.C: 0.716 and 0.950 and 1.085 | RPPA RSK1.R.V: 1.235 and 0.841 | RPPA RSK.R.C: 1.016 and 0.831 and 0.880 | RPPA Rab11.R.C: 0.965 and 1.012 and 0.993 | RPPA Rab25.R.V: 0.970 and 0.991 and 0.975 | RPPA Rad17_pS645.R.V: 1.158 | RPPA Rad23A.R.C: 0.785 and 0.923 and 1.052 | RPPA Rad50.R.V: 1.047 and 1.001 and 0.925 | RPPA Rad51.R.C: 1.141 | RPPA Raptor.R.V: 0.898 and 0.967 and 0.952 | RPPA Rb.M.Q: 1.031 | RPPA Rb_pS807_S811.R.V: 0.993 and 0.916 and 0.946 | RPPA Rheb.M.C: 1.005 | RPPA Rictor.R.C: 0.984 and 0.977 and 0.904 | RPPA Rictor_pT1135.R.V: 1.006 and 1.049 and 1.026 | RPPA S6.M.V: 1.029 and 0.890 and 0.873 | RPPA S6_pS235_S236.R.V: 0.665 and 0.702 and 0.771 | RPPA S6_pS240_S244.R.V: 1.130 and 0.761 and 0.978 | RPPA SCD.M.V: 0.998 and 1.016 | RPPA SDHA.R.V: 0.885 and 1.085 and 0.936 | RPPA SF2.R.V: 0.975 and 1.048 and 0.992 | RPPA SFRP1.R.V: 0.871 and 0.955 | RPPA SGK1.R.V: 1.123 and 0.868 | RPPA SGK3.R.V: 0.999 and 1.114 and 0.994 | RPPA SHP2.R.V: 1.022 and 1.001 and 0.989 | RPPA SHP.2_pY542.R.C: 0.948 and 0.890 and 0.849 | RPPA SIRPαR.V: 1.018 and 0.987 and 1.021 | RPPA SLC1A5.R.C: 0.918 and 0.893 and 1.114 | RPPA SOD1.M.V: 1.011 and 1.084 and 0.999 | RPPA SOD2.R.V: 1.111 and 1.200 and 1.033 | RPPA SOX7.R.V: 1.014 and 0.995 | RPPA STING.R.V: 0.837 and 0.985 and 0.890 | RPPA Shc_pY317.R.C: 0.828 and 3.472 and 1.241 | RPPA Slfn11.G.C: 0.855 and 0.895 | RPPA Smac.M.Q: 0.941 and 1.118 and 0.934 | RPPA Smad1.R.V: 0.926 and 1.050 | RPPA Smad3.R.V: 0.971 and 0.982 (2×) | RPPA Smad4.R.V: 1.125 and 1.111 and 0.988 | RPPA Snail.M.Q: 0.848 and 1.076 and 1.006 | RPPA Sox2.R.V: 0.994 and 0.995 and 0.973 | RPPA Sox17.R.V: 1.081 and 0.902 | RPPA Src.M.V: 0.986 and 1.228 and 1.023 | RPPA Src_pY416.R.V: 1.112 and 0.914 | RPPA Src_pY527.R.V: 1.187 and 0.891 and 0.646 | RPPA Stat1_pY701.R.V: 1.116 and 1.000 and 0.989 | RPPA Stat3.R.C: 0.928 and 0.967 and 1.021 | RPPA Stat3_pY705.R.C: 1.145 and 0.998 and 0.863 | RPPA Stat5a.R.V: 1.136 and 0.906 and 0.832 | RPPA Stathmin.1.R.V: 0.796 and 1.056 and 1.053 | RPPA Syk.M.V: 0.989 and 1.109 and 1.102 | RPPA Synaptophysin.R.C: 1.199 and 0.991 | RPPA TAZ.R.V: 0.707 and 1.122 and 1.046 | RPPA TEAD.R.C: 0.724 and 1.098 and 1.080 | RPPA TFAM.R.V: 0.916 and 0.953 and 0.872 | RPPA TFRC.R.V: 0.933 and 0.837 and 1.007 | RPPA TIGAR.R.V: 1.010 and 0.954 and 0.970 | RPPA TRAP1.M.V: 0.985 | RPPA TRIM24.R.C: 1.099 and 1.139 and 0.970 | RPPA TRIM25.R.C: 0.787 and 0.889 and 0.933 | RPPA TRIP13.R.V: 1.107 and 0.967 and 1.005 | RPPA Tau.M.C: 1.121 and 1.140 | RPPA Transglutaminase.M.V: 0.953 and 1.132 and 1.561 | RPPA level HLA.DQA1.R.V: 0.942 and 1.249 and 0.908 | RPPA level HLA.DR.DP.DQ.DX.R.C: 0.965 and 0.939 | RPPA level HMHA1.R.V: 0.904 and 1.030 and 0.992 | RPPA level HNRNPK.R.V: 1.000 and 1.157 and 1.048 | RPPA level HSP27.M.C: 1.035 and 0.965 | RPPA level HSP27_pS82.R.V: 0.973 and 1.006 and 0.985 | RPPA level HSP60.R.V: 0.817 and 0.961 | RPPA level HSP70.R.C: 0.863 and 0.990 and 0.973 | RPPA level Hexokinase.I.R.C: 1.158 and 0.954 | RPPA level Hexokinase.II.R.V: 1.125 and 0.921 and 0.919 | RPPA level Hif.1αR.C: 1.247 and 1.014 and 0.671 | RPPA level Histone.H3.R.V: 0.930 and 0.956 and 0.776 | RPPA level Histone.H3_pS10.R.V: 1.200 and 0.894 and 1.027 | RPPA level IDO.R.C: 0.882 and 1.060 | RPPA level IGF1R_pY1135_Y1136.R.V: 0.904 and 0.968 and 0.956 | RPPA level IGFBP2.R.V: 0.540 and 0.765 | RPPA level IGFBP3.M.V: 0.727 and 1.079 and 1.122 | RPPA level IGFRb.R.C: 0.931 and 1.005 and 0.850 | RPPA level IL.6.R.C: 0.856 and 0.994 and 1.019 | RPPA level IMP3.R.C: 1.033 and 1.014 and 0.956 | RPPA level INPP4b.R.C: 0.980 and 0.827 | RPPA level IR.b.R.C: 0.942 and 1.158 and 1.047 | RPPA level IRF.1.R.V: 0.733 and 0.989 and 0.863 | RPPA level IRF.3.R.V: 1.005 and 1.049 and 1.057 | RPPA level IRS1.R.V: 0.956 and 0.975 and 0.990 | RPPA level IRS2.R.C: 1.250 and 0.922 and 0.822 | RPPA level JAB1.M.C: 0.937 and 1.033 | RPPA level JNK2.R.V: 0.765 and 3.367 and 1.426 | RPPA level JNK_pT183_Y185.R.C: 0.982 and 0.932 and 1.030 | RPPA level Jagged1.R.V: 0.877 and 1.048 | RPPA level Jak2.R.V: 0.931 (2×) and 1.019 | RPPA level KAP1.R.V: 1.035 and 0.844 and 0.861 | RPPA level KEAP1.R.V: 1.174 and 0.839 | RPPA level LAD1.R.V: 0.772 and 1.056 and 1.078 | RPPA level LC3A.B.R.C: 1.052 and 0.957 and 0.853 | RPPA level LCN2.R.V: 2.061 and 0.840 and 0.854 | RPPA level LDHA.R.C: 0.770 and 1.150 | RPPA level LRP6_pS1490.R.V: 0.906 and 0.988 and 0.894 | RPPA level Lasu1.R.V: 1.033 and 1.132 and 1.052 | RPPA level Lck.R.V: 0.988 and 0.991 and 0.942 | RPPA level Lyn.R.V: 1.113 and 1.221 and 0.942 | RPPA level MACC1.R.V: 1.081 and 1.061 and 1.005 | RPPA level MAPK_pT202_Y204.R.C: 0.770 and 0.851 and 1.246 | RPPA level MCT4.R.V: 0.673 and 0.768 and 1.020 | RPPA level MDM2_pS166.R.V: 1.142 and 0.902 | RPPA level MEK1.R.V: 2.774 and 0.771 and 0.759 | RPPA level MEK1_pS217_S221.R.V: 1.065 and 0.907 and 1.005 | RPPA level MEK2.R.V: 0.928 and 1.010 and 0.996 | RPPA level MERIT40.R.C: 0.985 | RPPA level MERIT40_pS29.R.V: 0.918 and 1.049 | RPPA level METTL3.R.V: 1.128 and 1.097 and 0.930 | RPPA level MIF.R.C: 1.023 and 1.117 and 1.048 | RPPA level MIG6.R.V: 0.921 and 1.139 and 1.007 | RPPA level MITF.R.V: 1.105 and 1.065 and 0.952 | RPPA level MLH1.M.V: 1.000 and 0.967 | RPPA level MLKL.R.V: 0.819 and 0.881 and 1.048 | RPPA level MMP2.R.V: 1.026 and 0.968 and 0.958
